Test results: the supplement of paper PMC10307832

What was measured:
Experiment in all cases: relative viability (nuclei count vs DMSO), 5 days (fraction); higher = more cells survive
[1] = compound: Cn1c(=O)n(-c2ccc(C(C)(C)C#N)cc2)c2c3cc(-c4cnc5ccccc5c4)ccc3ncc21 [Dactolisib] + C[C@@H](Oc1cc(-c2cnn(C3CCNCC3)c2)cnc1N)c1c(Cl)ccc(F)c1Cl [Crizotinib] (partner 1 µM)
Method in brief: (§1)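 Lung cancer cell lines in 1536-well plates got either a single drug or a fixed anchor-drug dose together with five library-drug doses (not always all listed) in √10 steps, by pin tool, on the day after seeding. Nuclei were counted after 5 days, and relative viability is the treated-to-vehicle ratio of nuclei counts. Values are medians of duplicate plates.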

[2] = compound: Cn1c(=O)n(-c2ccc(C(C)(C)C#N)cc2)c2c3cc(-c4cnc5ccccc5c4)ccc3ncc21 [Dactolisib] + COc1cc2c(Oc3ccc(NC(=O)C4(C(=O)Nc5ccc(F)cc5)CC4)cc3F)ccnc2cc1OCCCN1CCOCC1 [Foretinib] (partner 0.25 µM)
Method in brief: as §1

[3] = compound: C1CCC(CC1)N(CCNCCC2=C3C(=C(C=C2)O)NC(=O)CO3)C(=O)CCNCCC4=CC(=C(C=C4)Cl)Cl [AZ505] + Cc1nc(NC(=O)N2CCC[C@H]2C(N)=O)sc1-c1ccnc(C(C)(C)C(F)(F)F)c1 [Alpelisib] (partner 2 µM)
Method in brief: as §1

[4] = compound: C1CCC(CC1)N(CCNCCC2=C3C(=C(C=C2)O)NC(=O)CO3)C(=O)CCNCCC4=CC(=C(C=C4)Cl)Cl [AZ505] + Cc1nc(Nc2ncc(C(=O)Nc3c(C)cccc3Cl)s2)cc(N2CCN(CCO)CC2)n1 [Dasatinib] (partner 0.075 µM)
Method in brief: as §1

Cell Line	relative viability ([1]; first compound 0.002 µM)	relative viability ([1]; first compound 0.006325 µM)	relative viability ([1]; first compound 0.02 µM)	relative viability ([1]; first compound 0.06325 µM)	relative viability ([1]; first compound 0.2 µM)	relative viability ([2]; first compound 0.002 µM)	relative viability ([2]; first compound 0.006325 µM)	relative viability ([2]; first compound 0.02 µM)	relative viability ([2]; first compound 0.06325 µM)	relative viability ([2]; first compound 0.2 µM)	relative viability ([3]; first compound 0.08 µM)	relative viability ([3]; first compound 0.253 µM)	relative viability ([3]; first compound 0.8 µM)	relative viability ([3]; first compound 2.53 µM)	relative viability ([3]; first compound 8 µM)	relative viability ([4]; first compound 0.08 µM)	relative viability ([4]; first compound 0.253 µM)	relative viability ([4]; first compound 0.8 µM)	relative viability ([4]; first compound 2.53 µM)	relative viability ([4]; first compound 8 µM)
Calu-6	0.891	0.766	0.702	0.462	0.325	0.826	0.915	0.879	0.531	0.543	0.842	1.07	0.934	0.937	0.962					
ChaGo-K-1	1.06	1.03	1.1	1.12	1.13	0.908	0.919	0.886	0.835	0.926						0.663	0.702	0.616	0.657	0.604
EBC-1	0.226	0.181	0.208	0.198	0.2	0.102	0.0977	0.103	0.103	0.0903	0.815	0.806	0.893	0.857	0.66					
EKVX	0.971	0.879	0.923	0.686	0.341	0.598	0.743	0.652	0.715	0.568	0.896	1.04	0.896	0.899	1.01	0.556	0.543	0.539	0.494	0.504
EMC-BAC-2	0.834	0.718	0.708	0.565	0.34	1.04	0.976	0.984	0.501	0.484	0.718	0.759	0.696	0.761	0.831	0.312	0.329	0.322	0.35	0.354
